Here are results for six molecules from article PMC6013495, “Development of a Novel Backbone Cyclic Peptide Inhibitor of the Innate Immune TLR/IL1R Signaling Protein MyD88” (Scientific Reports, 2018).

Numbered stars: 1 amine (or outer) side, 2 acyl side, 3 side chain; on linkers, the order of the positions; unused ones are H or OH. Bridge positions count the residues as written; N and C are the ends. Square brackets hold non-standard residues; d marks the D form. Ends that are not written are not given here. Peptide text beside a SMILES is read from it. N(6-aminohexyl)Gly = O=C(CN(CCCCCCN[*:3])[*:1])[*:2]; CO = O=C([*:1])[*:2]; Nlys = NCCCCNCC(=O)O

Data set [1] relates to THP-1 cells, TLR2 ligand Pam3CSK4. As to the kind of experiment: hTNFα production by THP-1 macrophages stimulated with Pam3CSK4 (TLR2). The class given is cell-based, human. As to conditions: THP-1, inhibitors 3 hr before Pam3CSK4, 24 h, ELISA. On the procedure:
MyD88 function depends on dimerization through the TIR domain[37]. The RDVLPGT peptide corresponds to the region between the βB strand and the αB helix[18] […] We screened a library of backbone cyclized peptides to identify a metabolically stable derivative of the BB loop peptide that retains the binding and functional properties of the parent peptide. The library was designed using two non-natural building blocks as previously reported. […] Tryptophan was added to the N-terminal AGBU for quantification purposes (Fig. 1). […]
Figure 3 c(MyD 4-4) blocks TLR-mediated macrophage activation. (A) THP-1 cells were treated with inhibitors for 3 hr prior to activation with the TLR2 ligand Pam3CSK4 200 pg/ml for 24 h. hTNFα levels were determined by ELISA. […] (B,C) Luminescence levels from the NFκB-luc murine RAW264.7 cells. […] NFκB-luc RAW264.7 cells were treated with inhibitors for 24 hr and then cells were stimulated with Pam3CSK4 (10 ng/ml) (C) or LPS (50 ng/ml) (D) for 4 hr and luminescence levels were determined. […] Human (h) TNFα levels were determined by ELISA at 24 hr. (F,G) NFκB-luc RAW264.7 cells were treated with the indicated compounds for 24 hr and then stimulated with Pam3CSK4 (F) or LPS (G) for 4 hr after which luminescence was determined. […]
(§1) Cytokines were determined using human/mouse OptEIA sets (BD Biosciences, CA, USA) according to the manufacturer’s instructions.
(In general: ELISA stands for enzyme-linked immunosorbent assay.)

For data set [2], the system named is THP-1 cells, TLR4 ligand LPS. Nature of the data set: hTNFα production by THP-1 macrophages stimulated with LPS (TLR4). The class given is cell-based, human. As to conditions: THP-1, compound 3 hr before LPS, 24 hr, ELISA. How it is done:
Figure 3 c(MyD 4-4) blocks TLR-mediated macrophage activation. (A) THP-1 cells were treated with inhibitors for 3 hr prior to activation with the TLR2 ligand Pam3CSK4 200 pg/ml for 24 h. hTNFα levels were determined by ELISA. One representative experiment of three independent experiments is shown. Asterisks represent the significance between treated cells and untreated Pam3CSK4-stimulated control. Asterisks above a cross bar represent the comparison between treatment with c(MyD 4-4) and treatment with MyDI. (B,C) Luminescence levels from the NFκB-luc murine RAW264.7 cells. The different conditions were set according to preliminary assays of each cell line. NFκB-luc RAW264.7 cells were treated with inhibitors for 24 hr and then cells were stimulated with Pam3CSK4 (10 ng/ml) (C) or LPS (50 ng/ml) (D) for 4 hr and luminescence levels were determined. One representative experiment of three independent experiments is shown. […] Human (h) TNFα levels were determined by ELISA at 24 hr. (F,G) NFκB-luc RAW264.7 cells were treated with the indicated compounds for 24 hr and then stimulated with Pam3CSK4 (F) or LPS (G) for 4 hr after which luminescence was determined. […]
as §1

In the next data set the test system is RAW264.7 NFκB-luc cells. As to the kind of experiment: Viability of NFκB-luc RAW264.7 cells. As to conditions: 24 hr treatment. The class given is cell-based, mouse.
Data set [3] in a line: Peptide stability in rat plasma. As to conditions: fresh plasma of male Wistar rats, 37 °C, HPLC-MS, triplicate; for stability in plasma: 10 µg/ml, up to 240 min. The class given is in vitro ADME. On the procedure: (§2) The linear peptide and c(MyD 4-4) (10 µg/ml) were mixed with fresh plasma from male Wistar rats (Harlan, Israel) and incubated at 37 °C for 240 min. Triplicate samples were taken at time 0 and after 5, 30, 60, 120, 180 and 240 min. Rat brush border membrane vesicles (BBMV) were prepared by Ca^2+ precipitation from the combined duodenum, jejunum, and upper ileum of male rats as described[41],[42]. Briefly, intestines were washed with ice cold saline and separated from mucus. The intestinal mucosa was separated from the luminal surface and placed immediately into buffer containing […] KCl and 10 mM Tris–HCl (pH 7.5, 4 °C). The samples were then homogenated (Polytron PT 1200, Kinematica AG, Switzerland) and 10 mM CaCl2 was added. The homogenate was placed on a shaker for 30 min at 4 °C and then centrifuged 10,000 g for 10 min. The supernatant was separated and centrifuged at 48,000 g for 30 min and an additional two purification steps were undertaken by suspending the pellet in 300 mM mannitol and 10 mM Hepes/Tris (pH 7.5) and centrifuging at 24,000 g/h. The quality of the BBMV purification was tested using the brush border membrane enzyme markers gamma-glutamyl transpeptidase (GGT), leucine amino peptidase (LAP) and alkaline phosphatase (Sigma-Aldrich, St Louis, MO). Peptides were mixed with purified BBMVs in MES buffer (2-(N-morpholino)ethanesulfonic acid, 50 mM pH 7.4) and incubated at 37 °C for 120 min. Triplicate samples were taken at time 0 and after 15, 30, 45, 60, 90, and 120 min.
To determine the concentration of the compounds, experimental samples were diluted 1:1 with ice-cold acetonitrile and centrifuged (11000 RPM, 10 min). The supernatant was separated and evaporated (Vacuum Evaporation System, Labconco, Kansas City, MO). Samples were reconstituted with acetonitrile: water 70:30 and then centrifuged (11000 RPM, 10 min). The amount of the compounds was determined using high performance liquid chromatography mass spectrometry (HPLC-MS) Waters 2695 Separation Module, equipped with Micromass ZQ detector. The resulting solution (100 μl) was injected into the HPLC system. […]

The nature of data set [4]: Peptide stability in brush border membrane vesicles (BBMVs). The class given is in vitro ADME. As to conditions: rat intestinal BBMVs in MES buffer 50 mM pH 7.4, 37 °C, HPLC-MS, triplicate. How it is done:
as §2, with “The quality of the BBMV purification was tested using the brush border membrane enzyme markers gamma-glutamyl transpeptidase (GGT), leucine amino peptidase (LAP) and alkaline phosphatase (Sigma-Aldrich, St Louis, MO). Peptides were mixed with purified BBMVs in MES buffer (2-(N-morpholino)ethanesulfonic acid, 50 mM pH 7.4) and incubated at 37 °C for 120 min. Triplicate samples were taken at time 0 and after 15, 30, 45, 60, 90, and 120 min.” left out
To determine the concentration of the compounds, experimental samples were diluted 1:1 with ice-cold acetonitrile and centrifuged (11000 RPM, 10 min). […] The amount of the compounds was determined using high performance liquid chromatography mass spectrometry (HPLC-MS) Waters 2695 Separation Module, equipped with Micromass ZQ detector. […]

For a further data set, the system named is THP-1 macrophages. The class given is cell-based, human. The text has this:
MyD88 function depends on dimerization through the TIR domain[37]. The RDVLPGT peptide corresponds to the region between the βB strand and the αB helix[18] […] We screened a library of backbone cyclized peptides to identify a metabolically stable derivative of the BB loop peptide that retains the binding and functional properties of the parent peptide. The library was designed using two non-natural building blocks as previously reported. The method, called cycloscan, is based on the concept of screening focused backbone cyclic libraries with spatial diversity that maintain the original side chains of the active region in the protein (RDVLPGT), Backbone cyclization combines N-alkylation with cyclization. In the case of the MyD88 BB-loop decoy peptide RDVLPGT, the tertiary amide bond preceding proline served as one of the anchor sites and was therefore replaced by an N-Alkylated glycine building unit (AGBU) to allow backbone cyclization to the second AGBU at the N-terminus (Fig. 1). Tryptophan was added to the N-terminal AGBU for quantification purposes (Fig. 1). Following the above procedure 16 backbone cyclic peptides were prepared with various ring size and position of the urea bridge in the ring (Table S1). To screen the library, human THP-1 macrophages were pre-treated with the cyclic peptides and then stimulated with Pam3CSK4, a synthetic TLR2/1 lipopeptide agonist.

In data set [5] the target is T1, recombinant fusion protein SUMO-MyD88-TIR (human MyD88 TIR domain, aa 150-296, fused to SUMO) (human, UniProt Q99836 150-296).
T1 construct: MyD88, human, TIR domain residues 150-296; Cloned with BamH/XhoI into the pETM-11 SUMO3GFP fusion vector; also called recombinant MyD88 TIR domain; Recombinant MyD88 TIR protein; source: E. coli BL21 C43 (DE3), purified (HIS-select Nickel Magnetic agarose beads, eluted with 300 mM imidazole)
As to the kind of experiment: ELISA; SUMO fusion protein attached to ELISA plate wells; biotinylated peptide added at several concentrations. As to conditions: both partners purified.

For data set [6], the target named is T1, recombinant fusion protein …. As to the kind of experiment: ELISA; competitive binding: SUMO-MyD88-TIR (8 µg/ml) attached to polystyrene plates at 4 °C overnight, blocked with 1% BSA in PBS; 125 µM Biotin-MyDI together with 10, 1, 0.1 or 0 µM competitor for 30 min; Streptavidin-HRP, absorbance at 450 nm. As to conditions: both partners purified.

T1 sequence (Q99836 150-296): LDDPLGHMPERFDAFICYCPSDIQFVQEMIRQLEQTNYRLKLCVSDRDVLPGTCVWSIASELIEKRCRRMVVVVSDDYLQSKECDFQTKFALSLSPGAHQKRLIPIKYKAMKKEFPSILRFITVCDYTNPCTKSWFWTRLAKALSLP

On to `NC(=O)[C@H]1CCS[C@@H]2C[C@]3(CCCN3C(=O)Cc3ccc(NC(=O)COc4ccc(Cl)cc4Cl)cc3)C(=O)N12` [ST2825], for which the “inhibition of hTNFα production” value in data set [1] and in data set [2] was “did not block” throughout. Further, the “cytotoxicity” value in the data set with RAW264.7 NFκB-luc cells is “highly cytotoxic”.

Turning to RDVLPGT-NH2 [MyDI], the “stability in plasma” value in data set [3] is “rapidly degraded”. The “stability with BBMVs” value in data set [4] (up to 120 min) is on record as “rapidly degraded”.

As for `CC(C)C[C@@H]1NC(=O)[C@H](C(C)C)NC(=O)[C@H](CC(=O)O)NC(=O)[C@H](CCCNC(=N)N)NC(=O)CN(C(=O)[C@@H](N)Cc2c[nH]c3ccccc23)CCCCCCNC(=O)NCCCCCCN(CC(=O)NCC(=O)N[C@H](C(N)=O)[C@@H](C)O)C1=O` [c(MyD6x6)] (H-W[N(6-aminohexyl)Gly]RDVL[N(6-aminohexyl)Gly]GT-NH2; linker 2-7 via CO), the “cytotoxicity” value in the data set with THP-1 macrophages is on record as “without causing cytotoxicity”.

In the case of `CC(C)C[C@@H]1NC(=O)[C@H](C(C)C)NC(=O)[C@H](CC(=O)O)NC(=O)[C@H](CCCNC(=N)N)NC(=O)CN(C(=O)[C@@H](N)Cc2c[nH]c3ccccc23)CCCCNC(=O)NCCCCN(CC(=O)NCC(=O)N[C@H](C(N)=O)[C@@H](C)O)C1=O` [c(MyD 4-4)] (H-W[Nlys]RDVL[Nlys]GT-NH2; linker 2-7 via CO), the “stability in plasma” value in data set [3] was “highly stable”. Also, in data set [3] (rat, 240 minutes, mean, read-out: starting material detected after incubation in plasma), the remaining at 4 h, 10 µg/ml is above 90%. The remaining at 2 h in data set [4] (male, intestinal brush border membrane vesicles (BBMVs), 2 h, mean, read-out: peptide recovered at end of incubation with BBMVs) is around 80%. Also, the “cytotoxicity” value with THP-1 macrophages is recorded as “without causing cytotoxicity”.

B1: Biotinylated linear BB loop peptide RDVLPGT (Biotin-MyDI) (peptide)
peptide: RDVLPGT
modifications: also: biotinylated, position not given here
notes: MyD88 BB loop heptamer; also called Biotinylated RDVLPGT; source: bought: Bio Basic Inc
In the case of B1, the binding result in data set [5] is given as “binds”.

B2: MyD88 inhibitor peptide (MyDI, RDVLPGT), unlabeled linear BB loop peptide (peptide)
peptide: RDVLPGT-NH2
notes: MyD88 BB loop heptamer; also called non-biotinylated linear peptide; MyD88 BB-loop decoy peptide; source: synthetic peptide (Fmoc chemistry on Rink amide MBHA resin, HPLC purified)
For the molecule B2, the binding result in data set [6] is listed as “binds”.
